Values of other authors as cited in US20120128784A1, “COMPOSITION CONTAINING BEE VENOM AS AN ACTIVE INGREDIENT FOR PREVENTING AND TREATING ACNE” (Dong Sung Pharm. Co., Ltd., priority 2009, published 2012).

System: edema
Settings: injected into arthritis patients

**Q.** With CC[C@H](C)[C@H](NC(=O)CN)C(=O)NCC(=O)N[C@@H](C)C(=O)N[C@H](C(=O)N[C@@H](CC(C)C)C(=O)N[C@@H](CCCCN)C(=O)N[C@H](C(=O)N[C@@H](CC(C)C)C(=O)N[C@H](C(=O)N[C@H](C(=O)NCC(=O)N[C@@H](CC(C)C)C(=O)N1CCC[C@H]1C(=O)N[C@@H](C)C(=O)N[C@@H](CC(C)C)C(=O)N[C@H](C(=O)N[C@@H](CO)C(=O)N[C@@H](Cc1c[nH]c2ccccc12)C(=O)N[C@H](C(=O)N[C@@H](CCCCN)C(=O)N[C@@H](CCCNC(=N)N)C(=O)N[C@@H](CCCCN)C(=O)N[C@@H](CCCNC(=N)N)C(=O)N[C@@H](CCC(N)=O)C(=O)N[C@@H](CCC(N)=O)C(N)=O)[C@@H](C)CC)[C@@H](C)CC)[C@@H](C)O)[C@@H](C)O)C(C)C)C(C)C [melittin] as the compound, how does the inhibition of edema read?
**A.** The inhibition of edema was “edema was significantly inhibited”.
